{
  "source": "patent US11559512B2",
  "about": "“Composition for prevention, alleviation, and/or treatment of heat illness” (priority 2017, dated 2023)",
  "key": {"[1]": {"tested_on": "human vascular endothelial cells (HUVECs)", "description": "Then, 2 mL of trypsin/EDTA was added to the cells, and the cells were detached by incubation at 37° C. in a 5% CO2 environment. After the cell detachment, 5 mL/dish of a culture medium was added, and the cells were transferred to a 15-mL tube and centrifuged at 1200 rpm for 5 minutes in a centrifuge. The supernatant was removed, and then, the number of cells was adjusted to a cell density of 5×10^4 cells/mL using a cell counting kit by the addition of 5 mL of a culture medium. Then, two 6-well plates were used, and the solution with the adjusted HUVEC density was inoculated at 4 mL/well to 3 wells of each plate. Each phytochemical component was added at 4 μL (final concentration: 10 μM)/well to one well of each plate. Also, a phytochemical dissolving solution DMSO was added at 4 μL/well to the remaining wells to prepare a control. […]\nSerial dilutions of auraptene were added to the cells, and the cell death of the HUVECs caused by heat stress was observed by crystal violet staining."}, "[2]": {"tested_on": "CCL-2", "assay": "CCL-2 concentration in supernatant of lymphocytes under heat stress load (ELISA)", "type": "cell-based, human", "description": "10 mL of human peripheral blood was collected and anti-coagulated with heparin, and 10 mL of PBS(−) was added thereto and stirred. 15 mL of Lymphocyte Separation Medium 1077 (PromoCell GmbH) was layered thereon so as not to mix blood thereinto, followed by blood separation at 1600 rpm for 30 minutes in a centrifuge. The mononuclear cell layer thus separated was collected into a dropper, added to 20 mL of a culture medium, and centrifuged at 1500 rpm for 5 minutes in a centrifuge. The supernatant was removed, and then, 20 mL of a culture solution was added to the cells and stirred. The cells were centrifuged again at 1500 rpm for 5 minutes in a centrifuge. The supernatant was removed, and then, 10 mL of a culture medium was added to the cells and stirred. The whole amount was added to a 10-cm dish and incubated at 37° C. for 1 hour in a 5% CO2 environment. […] The solution with the adjusted lymphocyte density was inoculated at 4 mL/well to 2 wells of each 6-well plate. […] Then, the supernatant was recovered into a 1.5-mL Eppendorf tube and centrifuged at 8000 rpm for 5 minutes in a centrifuge. […]\nThe solution was removed, and each well was washed four times. […] TMB Microwell Peroxidase Substrate was added at 100 μL/well, followed by the absorbance measurement of the reaction solution in a plate reader at 450 nm."}, "[3]": {"tested_on": "PPARγ", "assay": "PPARγ expression in HUVECs, antibody staining, confocal microscopy", "type": "cell-based, human", "description": "Then, six 35-mm dishes were provided, and 2 mL/dish of the solution with the adjusted HUVEC density was inoculated. Auraptene (10 mM) and tangeretin (10 mM) were each added at 2 μL (final concentration: 10 μM)/dish to two dishes. Also, DMSO was added at 2 μL/dish to the remaining 2 dishes to prepare a control.\nThe supernatant of the HUVECs cultured in each 35-mm dish was removed, and 2 mL/dish of 4% paraformaldehyde in a phosphate buffer solution was added. The cells were left standing at room temperature for 1 hour.\nThe solution was removed, and then, the cells were rinsed twice. 2 mL/dish of 0.5% Triton-X00 (Wako Pure Chemical Industries, Ltd.) in PBS was added, and the cells were left standing at room temperature for 5 minutes. The solution was removed, and then, the cells were rinsed twice. 1 mL/dish of an anti-ABCD3 antibody, an anti-PPARα antibody or an anti-PPARγ antibody, each of which was diluted 150-fold with a FACS buffer, was added, and the cells were left standing at room temperature for 2 hours for reaction.\nThe solution was removed, and then, the cells were rinsed twice. 1 mL/dish of DyLight 649-labeled anti-Rabbit IgG antibody diluted 500-fold with a FACS buffer was added, and the cells were left standing at room temperature for 1 hour in the dark for reaction. The solution was removed, and then, the cells were rinsed twice. Two drops of Diamond Antifade Mountant with DAPI were added to the cells, and a round glass cover was put on the cells, followed by fluorescence photographing under a confocal laser scanning microscope."}, "[4]": {"conditions": "Table 2 summary, HUVECs 40° C., 37° C. as comparative control"}},
  "data": [
    {"smiles": "CC(C)=CCC/C(C)=C/COc1ccc2ccc(=O)oc2c1", "note": "[auraptene, 7-geranyloxycoumarin]", "values": [
      {"measurement": "cell survival by crystal violet staining", "setting": "[1]; HUVECs cultured at 40° C. for 3 days, vs DMSO", "result": "evidently increased cell survival"},
      {"measurement": "concentration at which the cell death suppressive effect was confirmed (value in brackets)", "setting": "[1]; HUVECs, 40° C. for 3 days, crystal violet staining", "result": 600, "unit": "nM"},
      {"measurement": "concentration at which the cell death suppressive effect was confirmed", "setting": "[1]; HUVECs, 40° C. for 3 days, serial dilutions, crystal violet staining", "result": 0.6, "unit": "µM"},
      {"measurement": "Cytotoxicity (cell death)", "setting": "[1]; [4]", "result": "Suppressed"},
      {"measurement": "CCL-2 sample A", "setting": "[2]; peripheral blood lymphocytes sample A, 40° C., auraptene 10 μM, non-addition 61 ± 0.2", "result": "32 ± 1.7", "unit": "pg/mL"},
      {"measurement": "production of CCL-2", "setting": "[2]; peripheral blood lymphocytes under heat stress load, vs DMSO, p<0.05", "result": "significantly suppressed"},
      {"measurement": "expression of PPARγ", "setting": "[3]; HUVECs, 40° C. and 1 day, 10 μM, vs DMSO", "result": "increase in the expression of PPARγ"},
      {"measurement": "PPARγ", "setting": "[3]; [4]", "result": "Unchanged"}
    ]}
  ]
}
